From patent US10820823B2, “Evaluation of inhibitory circuit and use thereof” (INTER-UNIVERSITY RESEARCH INSTITUTE C[…] INSTITUTES OF …, priority 2015, dated 2020)

What was measured:
[1] = tested on: GABA-A early inhibition due to basket cells; settings: slice specimens; cited from earlier work
[2] = tested on: inhibitory circuit (GABA-A early inhibition); test: Inhibition rate (prepulse attenuation) of auditory change-related brain activity by magnetoencephalography, before and after drug administration; type: in vivo, human; settings: for effect of drug on inhibition: 5 mg single oral administration
Procedure: In the present embodiment, an action of inhibitory circuits of 13 humans was evaluated using an excitatory circuit for a change response to a sound pressure change in an auditory system. As for the change response, when a sudden slight increase in sound pressure (10 dB) is generated in a background sound in which a short click sound (70 dB) of 1 ms is continuously generated at a frequency of 100 Hz, the human brain reacts thereto with very high sensitivity and a remarkable brain response is triggered.
The evaluation system included a stimulus output unit and a brain activity measurement unit.
Full-head measurement with the cerebral magnetic field measurement unit was performed using a magnetoencephalograph (306 channel magnetoencephalograph (Vector View, Neuromag, Helsinki, Finland)).
Three kinds of stimuli, namely, the test stimulus, the preceding stimulus, and the test+preceding stimulus were sequentially applied to the subject at regular intervals from the stimulus output irnit through an insert earphone from the start of the test, and brain activity induced by the activation of the excitatory circuit at this time was measured as a cerebral magnetic field. […] A predetermined number of trials could be designated in the cerebral magnetic field measurement unit, addition was performed automatically, and an attenuation rate (inhibition rate) was obtained from the amplitude of the addition waveform.
Effect of diazepam (5 mg single oral administration) on inhibition was examined by comparing the inhibition rates before and after the administration of the drug to two subjects of different types by the same recording procedure as in first embodiment. The amplitude of the response was taken between vertices of a component of 50 ms and a component of 100 ms (black triangles).

In the case of `CN1C(=O)CN=C(c2ccccc2)c2cc(Cl)ccc21` [diazepam], the “effect on GABA-A early inhibition due to basket cells” value [1] is given as “enhances”, the “change of inhibition after the administration” value ([2]; Subject 1 (strong inhibition before administration), diazepam 5 mg single oral administration, 1 hour after administration) is given as “little change” and the “effect of drug on inhibition” value ([2]; Subject 1) is given as “small effect”. For the same compound, the “inhibition rate after the administration” value ([2]; Subject 2 (weak early inhibition before administration), diazepam 5 mg single oral administration, 1 hour after administration) was 45% and the “effect of drug on inhibition” value ([2]; Subject 2) was “strong effect”.
